By IC50 is commonly meant the concentration at which inhibition is half-maximal.

Consider 39 compounds from patent US6645976B1 (Eli Lilly and Company, priority 1994, dated 2003).

In the experiment the target is T1, recombinant human secreted phospholipase A2 (Homo sapiens, UniProt P14555).
T1 sequence (P14555 21-144): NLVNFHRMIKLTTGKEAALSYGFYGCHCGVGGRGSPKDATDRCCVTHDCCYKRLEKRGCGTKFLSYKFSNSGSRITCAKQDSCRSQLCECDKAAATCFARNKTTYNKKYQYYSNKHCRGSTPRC
Briefly: sPLA2 Chromogenic Assay (Assay 1). It counts as biochemical. Particulars: diheptanoyl thio-PC substrate, pH 7.5, 40° C. for 30 minutes, absorbance at 405 nanometers.

Procedure: The following chromogenic assay procedure was used to identify and evaluate inhibitors of recombinant human secreted phospholipase A2. The assay described herein has been adapted for high volume screening using 96 well microtiter plates.
A measured volume of racemic dipheptanoyl thio PC supplied in chloroform at a concentration of 100 mg/ml is taken to dryness and redissolved in 10 millimolar TRITON X-100™ nonionic detergent aqueous solution. Reaction Buffer is added to the solution, then DTNB to give the Reaction Mixture.
The reaction mixture thus obtained contains 1 mM diheptanoyl thio-PC substrate, 0.29 mm Triton X-100™ detergent, and 0.12 mm DTMB in a buffered aqueous solution at pH 7.5.
1. Add 0.2 ml reaction mixture to all wells;
2. Add 10 ul test compound (or solvent blank) to appropriate wells, mix 20 seconds;
3. Add 50 nanograms of sPLA2 (10 microliters) to appropriate wells;
4. Incubate plate at 40° C. for 30 minutes;
All compounds were tested in triplicate. […] Each sample was titrated in triplicate and result values were averaged for plotting and calculation of IC50 values.

Take `CCc1c(C(=O)C(N)=O)c2c(OCC(=O)OCCC(=O)OC3(C)CCCC3)cccn2c1Cc1ccccc1-c1ccccc1` [Compound 59h, 2-(3-Biphenyl-2-ylmethyl-2-ethyl-8-(1-methylcyclopentyloxycarbonylethyloxycarbonyl-methyloxy)-indolizin-1-yl)glyoxylamide]: the IC50 was 61 nM.

`CCCCCc1c(CC)c(C(=O)C(N)=O)c2c(OCC(=O)O)cccn12` [Compound 52e, 2-(8-Carboxymethyloxy-2-ethyl-3-pentylindolizin-1-yl)glyoxylamide]: the half-maximal inhibitory concentration (IC50) was found to be 62 nM.

Consider `CCc1c(C(=O)C(N)=O)c2c(OCC(=O)OC(C)OC(=O)OC)cccn2c1Cc1ccccc1-c1ccccc1` (stereo not drawn) [Compound 59b, 2-(3-Biphenyl-2-ylmethyl-8-(1-methoxycarbonyloxyethoxycarbonylmethoxy)-2-ethylindolizin-1-yl)glyoxylamide], for which the concentration for half-maximal inhibition (IC50) was found to be 11 nM.

With `CCc1c(C(=O)C(N)=O)c2c(OCC(=O)OC(C)C(=O)OC3CCCCC3)cccn2c1Cc1ccccc1-c1ccccc1` (stereo not drawn) [Compound 59e], the IC50 came out at 55 nM.

For `CSc1c(C(=O)C(N)=O)c2c(OCC(=O)O)cccn2c1Cc1ccccc1-c1ccccc1` [Compound 83, 2-(8-(Carboxymethyloxy)-2-methylthio-3-(o-phenylbenzyl)indolizin-lyl)-glyoxylamide], the concentration for half-maximal inhibition (IC50) worked out at 16 nM.

In the case of `CCc1c(C(=O)C(N)=O)c2c(OCC(=O)O)cccn2c1Cc1ccccc1` [Compound 40a, (3-Benzyl-8-(carboxymethyloxy)-2-ethylindolizin-1-yl)glyoxylamide], the concentration for half-maximal inhibition (IC50) came out at 8 nM.

For `CCc1c(C(=O)C(N)=O)c2c(OCC(=O)OC)cccn2c1Cc1cccs1` [Compound 51k], the IC50 was 220 nM.

As for `Cc1c(C(=O)C(N)=O)c2c(OCC(=O)O)cccn2c1Cc1ccccc1-c1ccccc1` [Compound 58a, 2-(3-(Biphenyl-2-ylmethyl)-8-carboxymethoxyl-2-methylindolizin-1-yl)glyoxylamide], the concentration for half-maximal inhibition (IC50) amounted to 8 nM.

`CCc1c(C(=O)C(N)=O)c2cc(OCCCC(=O)O)ccn2c1Cc1ccccc1-c1ccccc1` [Compound 67c, 2-(7-(3-Carboxypropyloxy)-2-ethyl-3-(o-phenylbenzyl)indolizin-1-yl)glyoxylamide]: the IC50 turned out to be 140 nM.

Take `CCc1c(C(=O)C(N)=O)c2c(OCCC(=O)O)cccn2c1Cc1ccccc1-c1ccccc1` [Compound 70a, 2-(3-(Biphenyl-2-yl-methyl)-8-(carboxyethyloxy)-2-ethylindolizine-1-yl)glyoxylamide]: the IC50 came out at 44 nM.

For `Cc1c(C(=O)C(N)=O)c2c(OCC(=O)O)cccn2c1Cc1ccccc1` [Compound 40g, (3-Benzyl-8-(carboxymethyloxy)-2-methylindolizin-1-yl)glyoxylamide], the concentration for half-maximal inhibition (IC50) came to 8 nM.

Regarding `CCc1c(C(=O)C(N)=O)c2c(OCC(=O)O)cccn2c1CC1CCCCC1` [Compound 52b, 2-(8-Carboxymethyloxy-3-cyclohexylmethyl-2-ethylindolizin-1-yl)glyoxylamide], the concentration for half-maximal inhibition (IC50) was determined as 21 nM.

Regarding `CCc1c(C(=O)C(N)=O)c2cc(OCCCC(=O)O)ccn2c1Cc1ccccc1` [Compound 67a, 2-(3-Benzyl-7-(3-carboxylpropyloxy)-2-ethylindolizin-1-yl)glyoxylamide], the concentration for half-maximal inhibition (IC50) stood at 200 nM.

Regarding `CCc1c(C(=O)C(N)=O)c2c(OCC(=O)OC)cccn2c1Cc1cccc(-c2ccccc2)c1` [Compound 57g, 2-(8-Carbomethoxymethyloxy-2-ethyl-3-(m-phenylbenzyl)indlolin-1-yl)glyoxylamide], the IC50 worked out at 80 nM.

As to `CCc1c(C(=O)C(N)=O)c2c(OCC(=O)O)cccn2c1Cc1ccccc1[N+](=O)[O-]` [Compound 52n, 2-(2-Ethyl-8-(carboxymethyloxy)-3-(o-nitrobenzyl)indolizine-1-yl)glyoxylamide], the IC50 stood at 36 nM.

On to `CCc1c(C(=O)C(=O)N(C)C)c2c(OCC(=O)O)cccn2c1Cc1ccccc1` [Compound 40c, (3-Benzyl-8-(carboxymethyloxy)-2-ethylindolizin-1-yl)glyoxyl-N,N-dimethylamide, reference compound], for which the IC50 was greater than 50000 nM.

On to `Cc1c(C(=O)C(N)=O)c2c(OCC(=O)O)cccn2c1CC1CCCC1` [Compound 52w, 2-(8-(Carboxymethyloxy)-3-cyclopentylmethyl-2-methylindolizin-1-yl)glyoxylamide], for which the IC50 was determined as 14 nM.

Regarding `CCc1c(C(=O)C(N)=O)c2c(OCC(=O)OC(C)OC(=O)OC(C)C)cccn2c1Cc1ccccc1-c1ccccc1` (stereo not drawn) [Compound 59c, 2-(3-Biphenyl-2-ylmethyl-2-ethyl-8-(1-isopropyloxycarbonyloxyethoxycarbonylmethoxy)indolizin-1-yl)glyoxylamide], the IC50 was 46 nM.

For the compound `CCc1c(C(=O)C(N)=O)c2c(OCC(=O)O)cccn2c1Cc1ccccc1Cc1ccccc1` [Compound 52j, 2-(8-(Carboxymethyloxy)-3-o-benzylbenzyl-2-ethylindolizin-1-yl)glyoxylamide], the IC50 worked out at 6 nM.

`COC(=O)COc1cccn2c(Cc3ccccc3-c3ccccc3)c(SC)c(C(=O)C(N)=O)c12` [Compound 82, 2-(8-(Carbomethoxymethyloxy)-2-methylthio-3-(o-phenylbenzyl)indolizin-1-yl)glyoxylamide]: the IC50 came to 120 nM.

As for `CCc1c(C(=O)C(N)=O)c2cc(OCCC(=O)O)ccn2c1Cc1ccccc1-c1ccccc1` [Compound 70b], the concentration for half-maximal inhibition (IC50) amounted to 240 nM.

Take `NC(=O)C(=O)c1c(C2CC2)c(Cc2ccccc2)n2cccc(OCC(=O)O)c12` [Compound 52r, 2-(3-Benzyl-8-carboxymethyloxy-2-cyclopropylindolizin-1-yl)-glyoxylamide]: the IC50 was 46 nM.

In the case of `CCc1c(CC(N)=O)c2c(OCC(=O)O)cccn2c1Cc1ccccc1-c1ccccc1` [Compound 22x, 2-(8-(Carboxymethyloxy)-2-ethyl-3-(o-phenylbenzyl)indolizin-1-yl)acetamide], the half-maximal inhibitory concentration (IC50) came to 14 nM.

As to `CCc1c(CC(N)=O)c2c(OCC(=O)OCc3ccccc3)cccn2c1Cc1ccccc1-c1ccccc1` [Compound 21x, 2-(8-(Benzyloxycarbonylmethyloxy)-2-ethyl-3-(o-phenylbenzyl)indolizin-1-yl)acetamide], the IC50 worked out at 140 nM.

`CCc1c(C(=O)C(N)=O)c2c(OCC(=O)O)cccn2c1Cc1cccc(OC)c1` [Compound 52m, 2-(2-Ethyl-8-(carboxymethyloxy)-3-(m-methoxybenzyl)indolizine-1-yl)glyoxylamide]: the 50% inhibitory concentration (IC50) was found to be 21 nM.

Turning to `COC(=O)COc1cccn2c(Cc3cccc4ccccc34)c(C3CC3)c(C(=O)C(N)=O)c12` [Compound 57j, 2-(8-Carbomethoxymethyloxy-2-cyclopropyl-3-(1-naphthylmethyl)indlolin-1-yl)glyoxylamide], the IC50 was determined as 790 nM.

Turning to `CCc1c(CC(N)=O)c2c(OCC(=O)O)cccn2c1Cc1cccc(Cl)c1` [Compound 22y, 2-(8-(Carboxymethyloxy)-3-(m-chlorobenzyl)-2-ethylindolizin-1-yl)acetamide], the IC50 is 15 nM.

Regarding `CCc1c(C(=O)C(=O)NC)c2c(OCC(=O)O)cccn2c1Cc1ccccc1` [Compound 40b, (3-Benzyl-8-(carboxymethyloxy)-2-ethylindolizin-1-yl)glyoxyl-N-methylamide, reference compound], the IC50 was greater than 50000 nM.

In the case of `CCc1c(C(=O)C(N)=O)c2c(OCc3nnnn3C(c3ccccc3)(c3ccccc3)c3ccccc3)cccn2c1Cc1ccccc1-c1ccccc1` [Compound 59l, 2-(3-(Biphenyl-2-yl-methyl)-2-ethyl-8-(1-tritytretrazol(-5-yl)methyloxy)indolizine-1-yl)glyoxylamide], the IC50 was 110 nM.

As for `CCOC(=O)CCCOc1ccn2c(Cc3ccccc3-c3ccccc3)c(CC)c(CC(N)=O)c2c1` [Compound 71a, 2-(7-(3-Carbethoxypropyloxy)-2-ethyl-3-(o-phenylbenzyl)indolizin-1-yl)acetamide], the IC50 worked out at 600 nM.

For the compound `CCCCCC1CCC(Cc2c(CC)c(C(=O)C(N)=O)c3c(OCC(=O)O)cccn23)CC1` (stereo not drawn) [Compound 52o, 2-(8-(Carboxymethyloxy)-2-ethyl-3-(4-n-pentylcyclohexylmethyl)indolizin-1-yl)glyoxylamide], the half-maximal inhibitory concentration (IC50) was found to be 25 nM.

`CCCCc1ccc(Cc2c(CC)c(C(=O)C(N)=O)c3c(OCC(=O)O)cccn23)cc1` [Compound 52s, 2-(3-(p-n-Butylbenzyl)-8-(carboxymethyloxy)-2-ethylindolizin-1-yl)glyoxylamide]: the IC50 was determined as 11 nM.

Turning to `CCc1c(Cc2ccccc2)c2ccc(OCCCC(=O)O)cn2c1C(=O)C(N)=O` [Compound 11, (1-Benzyl-6-(3-carboxypropyloxy)-2-ethylindolizin-3-yl)glyoxylamide], the half-inhibitory concentration (IC50) was determined as 1100 nM.

Turning to `NC(=O)C(=O)c1c(C2CC2)c(CC2CCCC2)n2cccc(OCC(=O)O)c12` [Compound 52v, 2-(8-(Carboxymethyloxy)-3-cyclopentylmethyl-2-cyclopropylindolizin-1-yl)glyoxylamide], the IC50 amounted to 29 nM.

As to `CCc1c(CC(N)=O)c2c(O)cccn2c1Cc1ccccc1-c1ccccc1` [Compound 20x, 2-(2-Ethyl-8-hydroxy-3-(o-phenylbenzyl)-indolizin-1-yl)acetamide], the IC50 was found to be 840 nM.

Turning to `CCc1c(C(=O)C(N)=O)c2c(OCC(=O)O)cccn2c1Cc1cccs1` [Compound 52k, 2-(8-(Carboxymethyloxy)-2-ethyl-3-(thiophen-2-ylmethyl)indolizin-1-yl)glyoxylamide], the IC50 turned out to be 11 nM.

Consider `CCc1c(C(=O)C(N)=O)c2c(OCC(=O)O)cccn2c1CCc1ccccc1` [Compound 52i, 2-(8-(Carboxymethyoxy)-2-ethyl-3-(2-phenylethyl)indolizin-1-yl)glyoxylamide], for which the IC50 came out at 51 nM.

For “2-(3-(Biphenyl-2-yl-methyl)-8-(carboxymethyloxy)-2-ethylindolizine-1-yl)glyoxylamide diglycolate [Compound 59j]”, the concentration for half-maximal inhibition (IC50) was 53 nM.

In the case of `CC(C)c1c(C(=O)C(N)=O)c2c(OCC(=O)O)cccn2c1Cc1ccccc1-c1ccccc1` [Compound 58c], the IC50 was 35 nM.
